Values quoted from earlier work in patent US20080248506A1, “Method of Monitoring Anti-Tumor Activity of an Hdac Inhibitor” (Pharmacyclics, Inc., priority 2004, published 2008).

Columns and labels:
H2AX = conditions: myeloid leukemia cell lines (HL60, K562, MDS92L; n=3)

| Compound | γ-H2AX accumulation (γ-H2AX; compound by itself, no irradiation) | number of irradiated cells that express γ-H2AX foci (γ-H2AX; with irradiation) | H2AX phosphorylation (H2AX) |
| --- | --- | --- | --- |
| Nc1ccccc1NC(=O)c1ccc(CNC(=O)OCc2cccnc2)cc1 [MS-275] | does not produce γ-H2AX accumulation | increase the number of irradiated cells that express γ-H2AX foci |  |
| CC(/C=C/C(=O)NO)=C\[C@@H](C)C(=O)c1ccc(N(C)C)cc1 [Trichostatin] |  |  | cause H2AX phosphorylation |
